According to patent publication US20240116877A1, “KIT KINASE INHIBITORS AND METHODS OF USE THEREOF” (Deciphera Pharmaceuticals, LLC, priority 2021, published 2024):
Like-named read-outs stand apart in the source and are kept apart here.

Experiments:
c-KIT kinase (uKIT) = c-KIT kinase (uKIT) (Homo sapiens (Human), UniProt P10721); test: Biochemical Assay for uKIT (coupled pyruvate kinase/lactate dehydrogenase assay); details: Inhibition of biochemical activity of uKIT kinase; 1 mM ATP
Procedure, shortened: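 Continuous coupled PK/LDH assay following NADH oxidation at 340 nm for 6 h at 30° C, with 16 nM or 4.36 nM KIT (two constructs), 0.7 mg/mL PE4Y, 1 mM ATP, pH 7.5. Rates from the 2-3 h window converted to percent inhibition versus controls; IC50 fitted.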

Ba/F3 KIT mutant cells = test: Ba/F3 mutant KIT Cell Proliferation Assays (resazurin); type: cell-based; details: Mus musculus, BaF3
Procedure, shortened: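 IC50 values come from resazurin fluorescence (ex 540, em 600) after 5 h dye exposure, added as a 440 μM solution. Cells were IL-3-independent Ba/F3 expressing mutant KIT from a lentiviral vector, puromycin-selected.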

GIST 430 cells = test: GIST 430 Cell Proliferation Assay (resazurin); type: cell-based; details: Homo sapiens; GIST430 cell proliferation
Procedure, shortened: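 Five thousand cells per well were exposed to serially diluted compound in complete growth medium for 115 h at 37 degrees Celsius, 5% CO2. Resazurin was then added for a further 5 h, fluorescence read at 540 nm excitation/600 nm emission, and IC50 values calculated.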

[1] = Ba/F3 KIT AYdup-V654A mutant cell proliferation, read-out: AYdup-V654A IC50
[2] = Ba/F3 KIT exon11del-V654A mutant cell proliferation, read-out: exon11del-V654A IC50
[3] = Ba/F3 KIT AYdup mutant cell proliferation, read-out: AYdup IC50
[4] = Ba/F3 KIT AYdup-D816G mutant cell proliferation, read-out: AYdup-D816G IC50
[5] = Ba/F3 KIT exon11del-Y823D mutant cell proliferation, read-out: exon11del-Y823D IC50

Sequence of c-KIT kinase (uKIT) (P10721 other isoform, or with tags, fused parts or gaps): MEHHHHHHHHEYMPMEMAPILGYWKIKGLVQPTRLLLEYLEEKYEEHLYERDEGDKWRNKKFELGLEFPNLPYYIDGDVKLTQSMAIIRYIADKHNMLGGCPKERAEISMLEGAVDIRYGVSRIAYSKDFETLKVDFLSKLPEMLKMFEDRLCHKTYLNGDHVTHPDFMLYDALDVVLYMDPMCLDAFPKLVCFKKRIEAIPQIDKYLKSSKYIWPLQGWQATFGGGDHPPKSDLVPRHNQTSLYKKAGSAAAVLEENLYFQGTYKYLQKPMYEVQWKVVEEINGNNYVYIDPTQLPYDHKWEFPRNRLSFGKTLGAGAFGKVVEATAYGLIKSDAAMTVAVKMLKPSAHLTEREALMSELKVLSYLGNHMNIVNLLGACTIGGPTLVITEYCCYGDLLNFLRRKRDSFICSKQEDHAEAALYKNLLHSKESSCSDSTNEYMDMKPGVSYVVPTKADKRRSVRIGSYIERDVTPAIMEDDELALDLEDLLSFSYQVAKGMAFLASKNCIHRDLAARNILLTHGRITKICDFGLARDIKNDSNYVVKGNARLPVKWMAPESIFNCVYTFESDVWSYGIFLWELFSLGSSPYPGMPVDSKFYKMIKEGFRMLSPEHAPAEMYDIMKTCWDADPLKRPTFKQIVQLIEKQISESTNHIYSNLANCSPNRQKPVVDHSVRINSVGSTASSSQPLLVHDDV

Row | Compound | IC50 (c-KIT kinase (uKIT)) [nM] | IC50 (Ba/F3 KIT mutant cells; [1]) [nM] | IC50 (Ba/F3 KIT mutant cells; [2]) [nM] | IC50 (Ba/F3 KIT mutant cells; [3]) [nM] | IC50 (Ba/F3 KIT mutant cells; [4]) [nM] | IC50 (Ba/F3 KIT mutant cells; [5]) [nM] | IC50 (GIST 430 cells) [nM]
1 | COCCOc1cc(F)c2c(Nc3ccc(NC(=O)NC4CC(C)(C)C4)nc3)ncnc2c1 [Example 25] | 100 to 1000 | > 1000 | > 1000 | – | – | – | > 1000
2 | CNC(=O)COc1cc(F)c2c(Nc3ccc(NC(=O)NCCC(C)(C)F)cc3)ncnc2c1 [Example 147] | 10 to 100 | 100 to 1000 | 10 to 100 | – | – | > 1000 | 100 to 1000
3 | COCCOc1cc(F)c2c(Nc3ccc(NC(=O)CC(=O)NCC(C)(C)COC)cc3)ncnc2c1 [Example 86] | 10 to 100 | 10 to 100 | 10 to 100 | – | – | > 1000 | 10 to 100
4 | COCCOc1cc(F)c2c(Nc3ccc(NC(=O)C4(C(=O)N(C)CC(C)C)CC4)cc3)ncnc2c1 [Example 72] | > 1000 | > 1000 | 100 to 1000 | – | – | – | 100 to 1000
5 | COCCOc1cc(F)c2c(Nc3ccc(NC(=O)CC(=O)NC4CCC4(C)C)cc3)ncnc2c1 (stereo not drawn) [Example 168] | 10 to 100 | 10 to 100 | 10 to 100 | – | – | 10 to 100 | ≤ 10
6 | COCCOc1cc(F)c2c(Nc3ccc(NC(=O)CC(=O)N4CCCC[C@H]4C(F)(F)F)cc3)ncnc2c1 [Example 171] | 10 to 100 | 10 to 100 | 10 to 100 | – | – | ≤ 10 | 10 to 100
7 | COCCOc1cc(F)c2c(Nc3ccc(NC(=O)CC(=O)N4CCCCC4(C)C)cc3)ncnc2c1 [Example 142] | 10 to 100 | 10 to 100 | 10 to 100 | – | – | 10 to 100 | 10 to 100
8 | COCCOc1cc(F)c2c(Nc3ccc(NC(=O)CCC4CCN(C)CC4)cc3)ncnc2c1 [Example 62] | > 1000 | 100 to 1000 | 100 to 1000 | – | – | – | > 1000
9 | COCCOc1cc(F)c2c(Nc3ccc(NC(=O)NCCC(C)(C)F)nc3)ncnc2c1 [Example 29] | 100 to 1000 | > 1000 | > 1000 | – | > 1000 | > 1000 | 100 to 1000
10 | COCCOc1cc(F)c2c(Nc3ccc(NC(=O)CCN4CCCC4=O)cc3)ncnc2c1 [Example 53] | > 1000 | > 1000 | > 1000 | 100 to 1000 | > 1000 | – | 100 to 1000
11 | COCCOc1cc(F)c2c(Nc3ccc(NC(=O)C(=O)NCC(C)(C)C)cc3)ncnc2c1 [Example 126] | 100 to 1000 | 100 to 1000 | 100 to 1000 | – | – | > 1000 | 100 to 1000
12 | COCCOc1cc(F)c2c(Nc3ccc(NC(=O)CC(=O)NC4(C(C)C)CC4)cc3)ncnc2c1 [Example 128] | 10 to 100 | 10 to 100 | ≤ 10 | – | – | 100 to 1000 | 10 to 100
13 | COCCOc1cc(F)c2c(Nc3ccc(NC(=O)CC(=O)NC4COC4)cc3)ncnc2c1 [Example 93] | 100 to 1000 | > 1000 | 100 to 1000 | – | – | – | > 1000
14 | COCCOc1cc(F)c2c(Nc3ccc(NC(=O)CC(=O)N4CCC(C)(C)C4)cc3)ncnc2c1 [Example 141] | 10 to 100 | 10 to 100 | ≤ 10 | ≤ 10 | 10 to 100 | 10 to 100 | 10 to 100
15 | COCCOc1cc(F)c2c(Nc3ccc(NC(=O)CC(=O)NCC4(C#N)CC4)cc3)ncnc2c1 [Example 98] | 10 to 100 | 100 to 1000 | 10 to 100 | – | – | > 1000 | 100 to 1000
16 | COCCOc1cc(F)c2c(Nc3ccc(NC(=O)CC(=O)N4CCC4(C)C)cc3)ncnc2c1 [Example 167] | 10 to 100 | 10 to 100 | 100 to 1000 | – | – | 100 to 1000 | 10 to 100
17 | COCCOc1cc(F)c2c(Nc3ccc(NC(=O)CC(=O)N4CCCCC4)cc3)ncnc2c1 [Example 187] | 100 to 1000 | 100 to 1000 | > 1000 | – | – | > 1000 | 100 to 1000
18 | COCCOc1cc(F)c2c(Nc3ccc(NC(=O)CC(=O)N4CC[C@H](C)C4)cc3)ncnc2c1 [Example 191] | 10 to 100 | 100 to 1000 | 100 to 1000 | – | – | 100 to 1000 | 100 to 1000
19 | COCCOc1cc(F)c2c(Nc3ccc(NC(=O)CCC(=O)N(C)C(C)C)cc3)ncnc2c1 [Example 67] | 10 to 100 | 100 to 1000 | 10 to 100 | – | – | 10 to 100 | 100 to 1000
20 | COCCOc1cc(F)c2c(Nc3ccc(NC(=O)CC(=O)N4C5CCC4CC5)cc3)ncnc2c1 [Example 188] | 10 to 100 | 100 to 1000 | 100 to 1000 | – | – | 100 to 1000 | 100 to 1000
21 | COC(C)(C)CCNC(=O)Nc1ccc(Nc2ncnc3cc(OCCN4CCOCC4)cc(F)c23)cc1 [Example 37] | 10 to 100 | 10 to 100 | 10 to 100 | ≤ 10 | 10 to 100 | 10 to 100 | ≤ 10
22 | COCCOc1cc(F)c2c(Nc3ccc(NC(=O)CC4CCN(C)CC4)cc3)ncnc2c1 [Example 40] | > 1000 | – | > 1000 | – | – | – | > 1000
23 | COCCOc1cc(F)c2c(Nc3ccc(NC(=O)NCCOC(C)(C)C)cc3)ncnc2c1 [Example 38] | 10 to 100 | 10 to 100 | ≤ 10 | ≤ 10 | ≤ 10 | ≤ 10 | ≤ 10
24 | COCCOc1cc(F)c2c(Nc3ccc(NC(=O)CC(=O)NCCN(C)C)cc3)ncnc2c1 [Example 83] | > 1000 | – | > 1000 | – | – | – | > 1000
25 | COCCOc1cc(F)c2c(Nc3ccc(NC(=O)CC(=O)NCC4CC(F)(F)C4)cc3)ncnc2c1 [Example 115] | 10 to 100 | 10 to 100 | 10 to 100 | – | – | 100 to 1000 | 10 to 100

Now from value to compound, other results behind:

Row | IC50 (c-KIT kinase (uKIT)) [nM] | IC50 (Ba/F3 KIT mutant cells; [1]) [nM] | IC50 (Ba/F3 KIT mutant cells; [2]) [nM] | IC50 (Ba/F3 KIT mutant cells; [3]) [nM] | IC50 (Ba/F3 KIT mutant cells; [4]) [nM] | IC50 (Ba/F3 KIT mutant cells; [5]) [nM] | Compound | IC50 (GIST 430 cells) [nM]
26 | ≤ 10 | 10 to 100 | 10 to 100 | ≤ 10 | ≤ 10 | 10 to 100 | COCCOc1cc(F)c2c(Nc3ccc(NC(=O)NCCC(C)(C)C#N)cc3)ncnc2c1 [Example 26] | 10 to 100
27 | ≤ 10 | 10 to 100 | ≤ 10 | – | – | 100 to 1000 | COCCOc1cc(F)c2c(Nc3ccc(NC(=O)NCCC(C)(C)C#N)c(F)c3)ncnc2c1 [Example 105] | ≤ 10
28 | ≤ 10 | 10 to 100 | ≤ 10 | ≤ 10 | 10 to 100 | 10 to 100 | COCCOc1cc(F)c2c(Nc3ccc(NC(=O)CC(=O)NCC4(C)CCC4)cc3)ncnc2c1 [Example 111] | ≤ 10
29 | ≤ 10 | 10 to 100 | ≤ 10 | – | ≤ 10 | 10 to 100 | COCCOc1cc(F)c2c(Nc3ccc(NC(=O)CCCC(C)(C)C)cc3)ncnc2c1 [Example 16] | ≤ 10
30 | ≤ 10 | 10 to 100 | ≤ 10 | – | – | 100 to 1000 | CN(C)CCOc1cc(F)c2c(Nc3ccc(NC(=O)NCCC(C)(C)F)cc3)ncnc2c1 [Example 68] | ≤ 10
31 | ≤ 10 | 10 to 100 | ≤ 10 | – | – | 10 to 100 | COCCOc1cc(F)c2c(Nc3ccc(NC(=O)NCCCC(C)(C)F)cc3)ncnc2c1 [Example 106] | ≤ 10
32 | ≤ 10 | 10 to 100 | 10 to 100 | ≤ 10 | 10 to 100 | 10 to 100 | CC(C)(F)CCNC(=O)Nc1ccc(Nc2ncnc3cc(OC[C@@H]4CCCO4)cc(F)c23)cc1 [Example 162] | 10 to 100
33 | ≤ 10 | 10 to 100 | ≤ 10 | ≤ 10 | 10 to 100 | 100 to 1000 | CC(C)(F)CCNC(=O)Nc1ccc(Nc2ncnc3cc(OC4CCOCC4)cc(F)c23)cc1 [Example 138] | 10 to 100
34 | ≤ 10 | 10 to 100 | 10 to 100 | – | 10 to 100 | 100 to 1000 | COCCOc1cc(F)c2c(Nc3ccc(NC(=O)NC4CCC(C(F)(F)F)CC4)cc3)ncnc2c1 (stereo not drawn) [Example 15] | 10 to 100
35 | ≤ 10 | 10 to 100 | 10 to 100 | ≤ 10 | 10 to 100 | 10 to 100 | COCCOc1cc(F)c2c(Nc3ccc(NC(=O)CC4CCC(F)(F)CC4)cc3)ncnc2c1 [Example 41] | 10 to 100
36 | ≤ 10 | 10 to 100 | 10 to 100 | – | ≤ 10 | 10 to 100 | COCCOc1cc(F)c2c(Nc3ccc(NC(=O)N[C@H]4CC[C@H](C(F)(F)F)CC4)cc3)ncnc2c1 [Example 30] | ≤ 10
37 | ≤ 10 | 10 to 100 | ≤ 10 | – | ≤ 10 | 10 to 100 | COCCOc1cc(F)c2c(Nc3ccc(NC(=O)NC4CCC(C)(C)C4)cc3)ncnc2c1 (stereo not drawn) [Example 34] | 10 to 100
38 | ≤ 10 | 10 to 100 | 10 to 100 | – | – | 10 to 100 | CN1CC[C@@H](Oc2cc(F)c3c(Nc4ccc(NC(=O)NCCC(C)(C)F)cc4)ncnc3c2)C1 [Example 173] | 10 to 100
